Experimental data as given in US20260102383A1, “LPAR1 Inhibitors” (AbbVie Inc., priority 2024, published 2026).

Target: T1, human LPAR1 (Homo sapiens, UniProt Q92633)
T1 construct: host or cells: TangoEDG2-bla U2OS cells
Assay: Arrestin assay (Arrestin Reporter EDG2-bla U2OS), inhibition of LPA-stimulated signal
Assay type: cell-based
Conditions: TangoEDG2-bla U2OS cells expressing human LPAR1; 0.25 μM LPA; read-out: Arrestin Reporter EDG2-bla U2OS Human IC50
How it was run: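 IC50 comes from a variable-slope 4-parameter fit of % inhibition, calculated from the beta-lactamase FRET ratio (emission 460/530 nm, excitation 409 nm, 2 h development at RT). Compounds, 10 μM down to 0.00006 μM in 3-fold steps, were given 1 h before 0.25 μM final LPA for 3 h in TangoEDG2-bla U2OS cells.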

T1 sequence (Q92633 whole entry): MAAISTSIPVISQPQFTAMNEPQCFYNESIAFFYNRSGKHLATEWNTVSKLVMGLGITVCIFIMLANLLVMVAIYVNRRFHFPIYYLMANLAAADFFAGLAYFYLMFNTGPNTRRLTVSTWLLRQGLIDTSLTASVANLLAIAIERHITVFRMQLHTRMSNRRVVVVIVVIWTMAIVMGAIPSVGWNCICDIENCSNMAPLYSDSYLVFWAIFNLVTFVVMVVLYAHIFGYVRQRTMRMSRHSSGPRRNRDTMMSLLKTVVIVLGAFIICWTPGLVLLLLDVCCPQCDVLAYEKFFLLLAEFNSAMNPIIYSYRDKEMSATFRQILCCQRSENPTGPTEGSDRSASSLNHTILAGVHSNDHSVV

Row | IC50 | Compound
1 | 26.2 nM | COC[C@@H](CN1CCC(C(=O)Nc2ccc(Cl)cc2OC(F)F)(n2ncc(F)c2C(C)C)CC1)C(=O)O [Compound 169, (2R)-2-[[4-[[4-chloro-2-(difluoromethoxy)phenyl]carbamoyl]-4-(4-fluoro-5-isopropyl-pyrazol-1-yl)-1-piperidyl]methyl]-3-methoxy-propanoic acid]

Same assay, conditions: TangoEDG2-bla U2OS cells expressing human LPAR1; 0.25 μM LPA; read-out: Arrestin Reporter EDG2-bla U2OS Human Merged IC50

Row | IC50 | Compound
2 | 86.9 nM | CC(C)c1ccnn1C1(C(=O)Nc2ccc(Cl)cc2OC(F)F)CCN(C[C@@H](C(=O)O)N2C[C@@H](C)O[C@H](C)C2)CC1 [Compound 160, (2S)-3-[4-[[4-chloro-2-(difluoromethoxy)phenyl]carbamoyl]-4-(5-isopropylpyrazol-1-yl)-1-piperidyl]-2-[(2R,6R)-2,6-dimethylmorpholin-4-yl]propanoic acid]
3 | 212 nM | CC(C)c1c(F)cnn1C1(C(=O)Nc2ccc(Cl)cc2OC(F)F)CCN(C[C@]2(C(=O)O)CC[C@H](O)CC2)CC1 [Compound 161, (1r,4r)-1-[[4-[[4-chloro-2-(difluoromethoxy)phenyl]carbamoyl]-4-(4-fluoro-S-isopropyl-pyrazol-1-yl)-1-piperidyl]methyl]-4-hydroxy-cyclohexanecarboxylic acid]
4 | 51.8 nM | CC(C)c1c(F)cnn1C1(C(=O)Nc2ccc(Cl)cc2OC(F)F)CCN(C[C@]2(C(=O)O)CC[C@@H](O)CC2)CC1 [Compound 162, (1s,4s)-1-[[4-[[4-chloro-2-(difluoromethoxy)phenyl]carbamoyl]-4-(4-fluoro-5-isopropyl-pyrazol-1-yl)-1-piperidyl]methyl]-4-hydroxy-cyclohexanecarboxylic acid]
5 | 72.4 nM | CC(C)c1ccnn1C1(C(=O)Nc2ccc(Cl)cc2OC(F)F)CCN([C@H]2C[C@](O)(C(=O)O)C2)CC1 [Compound 164, (1s,3s)-3-[4-[[4-chloro-2-(difluoromethoxy)phenyl]carbamoyl]-4-(5-isopropylpyrazol-1-yl)-1-piperidyl]-1-hydroxy-cyclobutanecarboxylic acid]
6 | 137 nM | CC(C)c1ccnn1C1(C(=O)Nc2ccc(Cl)cc2OC(F)F)CCN(C[C@@H](C(=O)O)N2CCOC(C)(C)C2)CC1 [Compound 165, (2S)-3-[4-[[4-chloro-2-(difluoromethoxy)phenyl]carbamoyl]-4-(5-isopropylpyrazol-1-yl)-1-piperidyl]-2-(2,2-dimethylmorpholin-4-yl)propanoic acid]
7 | 120 nM | CC(C)c1ccnn1C1(C(=O)Nc2ccc(Cl)cc2OC(F)F)CCN(C[C@H](C(=O)O)N2CCOC(C)(C)C2)CC1 [Compound 166]
8 | 108 nM | CC(C)c1ccnn1C1(C(=O)Nc2ccc(Cl)cc2OC(F)F)CCN(C[C@@H](C(=O)O)N2C[C@H](C)O[C@@H](C)C2)CC1 [Compound 167, (2S)-3-[4-[[4-chloro-2-(difluoromethoxy)phenyl]carbamoyl]-4-(5-isopropylpyrazol-1-yl)-1-piperidyl]-2-[(2S,6S)-2,6-dimethylmorpholin-4-yl]propanoic acid]
9 | 28.8 nM | CC(C)c1ccnn1C1(C(=O)Nc2ccc(Cl)cc2OC(F)F)CCN(C[C@@H](CC#N)C(=O)O)CC1 [Compound 168, (2R)-2-[[4-[[4-chloro-2-(difluoromethoxy)phenyl]carbamoyl]-4-(5-isopropylpyrazol-1-yl)-1-piperidyl]methyl]-3-cyano-propanoic acid]
10 | 92.6 nM | CC(C)c1ccnn1C1(C(=O)Nc2ccc(Cl)cc2OC(F)F)CCN(CC(C(=O)O)C2CCOC(C)(C)C2)CC1 (centres unmarked) [Compound 171, 3-[4-[[4-chloro-2-(difluoromethoxy)phenyl]carbamoyl]-4-(5-isopropylpyrazol-1-yl)-1-piperidyl]-2-(2,2-dimethyltetrahydropyran-4-yl)propanoic acid]
11 | 71 nM | CC(C)c1ccnn1C1(C(=O)Nc2ccc(Cl)cc2OC(F)F)CCN(C[C@@]2(C(=O)O)CCOC(C)(C)C2)CC1 [Compound 172, (4R)-4-[[4-[[4-chloro-2-(difluoromethoxy)phenyl]carbamoyl]-4-(5-isopropylpyrazol-1-yl)-1-piperidyl]methyl]-2,2-dimethyl-tetrahydropyran-4-carboxylic acid]
12 | 31 nM | CC(C)c1ccnn1C1(C(=O)Nc2ccc(Cl)cc2OC(F)F)CCN(C[C@]2(C(=O)O)CCOC(C)(C)C2)CC1 [Compound 173, (4S)-4-[[4-[[4-chloro-2-(difluoromethoxy)phenyl]carbamoyl]-4-(5-isopropylpyrazol-1-yl)-1-piperidyl]methyl]-2,2-dimethyl-tetrahydropyran-4-carboxylic acid]
13 | 122 nM | CC(C)c1ccnn1C1(C(=O)Nc2ccc(Cl)cc2OC(F)F)CCN(C[C@]2(C(=O)O)CC[C@](C)(O)CC2)CC1 [Compound 175, (1r,4r)-1-[[4-[[4-chloro-2-(difluoromethoxy)phenyl]carbamoyl]-4-(5-isopropylpyrazol-1-yl)-1-piperidyl]methyl]-4-hydroxy-4-methyl-cyclohexanecarboxylic acid]
14 | 95.5 nM | CC1(C)OCc2cnn(C3(C(=O)Nc4ccc(Cl)cc4OC(F)F)CCN(C[C@H](C(=O)O)C4CCOCC4)CC3)c21 [Compound 176, (2R)-3-[4-[[4-chloro-2-(difluoromethoxy)phenyl]carbamoyl]-4-(6,6-dimethyl-4H-furo[3,4-c]pyrazol-1-yl)-1-piperidyl]-2-tetrahydropyran-4-yl-propanoic acid]
15 | 92.5 nM | CC(C)c1ccnn1C1(C(=O)Nc2ccc(Cl)cc2OC(F)F)CCN(CC2(C(=O)O)[C@@H]3COC[C@@H]32)CC1 (stereo partly drawn) [Compound 177, (1S,5R)-6-[[4-[[4-chloro-2-(difluoromethoxy)phenyl]carbamoyl]-4-(5-isopropylpyrazol-1-yl)-1-piperidyl]methyl]-3-oxabicyclo[3.1.0]hexane-6-carboxylic acid]
16 | 123 nM | COC1CN([C@@H](CN2CCC(C(=O)Nc3ccc(Cl)cc3OC(F)F)(n3nccc3C(C)C)CC2)C(=O)O)C1 [Compound 178, (2S)-3-[4-[[4-chloro-2-(difluoromethoxy)phenyl]carbamoyl]-4-(5-isopropylpyrazol-1-yl)-1-piperidyl]-2-(3-methoxyazetidin-1-yl)propanoic acid]
17 | 174 nM | CC(C)c1ccnn1C1(C(=O)Nc2ccc(Cl)cc2OC(F)F)CCN(Cc2c(C(=O)O)nnn2C)CC1 [Compound 179, 5-[[4-[[4-chloro-2-(difluoromethoxy)phenyl]carbamoyl]-4-(5-isopropylpyrazol-1-yl)-1-piperidyl]methyl]-1-methyl-triazole-4-carboxylic acid]
18 | 48.8 nM | CC(C)c1ccnn1C1(C(=O)Nc2ccc(Cl)cc2OC(F)F)CCN(CC2(C(=O)O)C[C@@H](C)O[C@@H](C)C2)CC1 (stereo partly drawn) [Compound 180, (2R,6S)-4-[[4-[[4-chloro-2-(difluoromethoxy)phenyl]carbamoyl]-4-(5-isopropylpyrazol-1-yl)-1-piperidyl]methyl]-2,6-dimethyl-tetrahydropyran-4-carboxylic acid]
19 | 87.7 nM | COC1(C(=O)O)CC(N2CCC(C(=O)Nc3ccc(Cl)cc3OC(F)F)(n3nccc3C(C)C)CC2)C1 (centres unmarked) [Compound 181, 3-[4-[[4-chloro-2-(difluoromethoxy)phenyl]carbamoyl]-4-(5-isopropylpyrazol-1-yl)-1-piperidyl]-1-methoxy-cyclobutanecarboxylic acid]
20 | 36.3 nM | CC(C)c1ccnn1C1(C(=O)Nc2ccc(Cl)cc2OC(F)F)CCN(C[C@@H](CO)C(=O)O)CC1 [Compound 182]
